Data reported in patent publication US11802120B2, “Fused cyclic urea derivatives as CRHR2 antagonist” (RaQualia Pharma Inc., priority 2018, dated 2023).

Biological target: T1, human CRHR2-alpha (Homo sapiens, UniProt Q13324)
T1 sequence (Q13324 1-411): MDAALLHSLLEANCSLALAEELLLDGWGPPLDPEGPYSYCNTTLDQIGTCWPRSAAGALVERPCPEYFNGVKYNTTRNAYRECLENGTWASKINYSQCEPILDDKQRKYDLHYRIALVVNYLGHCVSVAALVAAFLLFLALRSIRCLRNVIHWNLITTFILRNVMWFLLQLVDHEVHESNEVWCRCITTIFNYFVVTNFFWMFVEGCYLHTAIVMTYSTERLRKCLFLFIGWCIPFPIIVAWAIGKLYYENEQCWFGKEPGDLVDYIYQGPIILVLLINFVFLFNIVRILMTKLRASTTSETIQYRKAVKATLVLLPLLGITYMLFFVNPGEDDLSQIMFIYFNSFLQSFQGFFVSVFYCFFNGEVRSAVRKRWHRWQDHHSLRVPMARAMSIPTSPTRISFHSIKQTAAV
Assay: cAMP functional assay for human CRHR2 (LANCE Ultra cAMP, TR-FRET)
Assay type: cell-based
Settings: CHO-K1 cells expressing human CRHR2-alpha, agonist human urocortin2 at EC80, cAMP; read-out: IC50 against CRHR2
Method in brief: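 CHO-K1 stable lines; 4,000 cells/well; compound 30 min, 25° C; EC80 agonist (human urocortin2 → CRHR2, CRF → CRHR1) 30 min, 25° C; buffer HBSS/0.1% BSA/0.5 mM IBMX/5 mM Hepes pH 7.4; Eu-cAMP tracer + ULight antibody 60 min; TR-FRET read; IC50 from % inhibition curves.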

SMILES | IC50 [nM]
CCC(=O)Nc1ccc(-n2c(=O)n(C[C@H]3CC[C@H](NC(=O)c4cc(Cl)cnc4C(F)F)CC3)c3ccccc32)cn1 [Example 510, 5-chloro-2-(difluoromethyl)-N-((1r,4r)-4-((2-oxo-3-(6-propionamidopyridin-3-yl)-2,3-dihydro-1H-benzo[d]imidazol-1-yl)methyl)cyclo-hexyl)nicotinamide] | < 300
Cc1ncc(Cl)cc1C(=O)N[C@H]1CC[C@H](Cn2c(=O)n(-c3ccc(-n4ccnn4)nc3)c3ccccc32)CC1 [Example 511, N-((1r,4r)-4-((3-(6-(1H-1,2,3-triazol-1-yl)pyridin-3-yl)-2-oxo-2,3-dihydro-1H-benzo[d]imidazol-1-yl)methyl)cyclohexyl)-5-chloro-2-methylnicotinamide] | < 300
Cc1ncc(Cl)cc1C(=O)N[C@H]1CC[C@H](Cn2c(=O)n(-c3ccc(-n4nccn4)nc3)c3ccccc32)CC1 [Example 512, N-((1r,4r)-4-((3-(6-(2H-1,2,3-triazol-2-yl)pyridin-3-yl)-2-oxo-2,3-dihydro-1H-benzo[d]imidazol-1-yl)methyl)cyclohexyl)-5-chloro-2-methylnicotinamide] | < 300
Cc1ncc(Cl)cc1C(=O)N[C@H]1CC[C@H](Cn2c(=O)n(C3CCN(c4cccnc4)CC3)c3ccccc32)CC1 [Example 513, 5-chloro-2-methyl-N-((1r,4r)-4-((2-oxo-3-(1-(pyridin-3-yl)piperidin-4-yl)-2,3-dihydro-1H-benzo [d]imidazol-1-yl)methyl)cyclohexyl)nicotinamide] | < 300
CC(C)Nc1ccc(-n2c(=O)n(C[C@H]3CC[C@H](NC(=O)c4cc(Cl)cnc4C(F)F)CC3)c3ccccc32)cn1 [Example 514, 5-chloro-2-(difluoromethyl)-N-((1r,4r)-4-((3-(6-(iso-propylamino)pyridin-3-yl)-2-oxo-2,3-dihydro-1H-benzo [d]imidazol-1-yl)methyl)cyclohexyl)nicotinamide] | < 300
CC(F)(F)CNc1ccc(-n2c(=O)n(C[C@H]3CC[C@H](NC(=O)c4cc(Cl)cnc4C(F)F)CC3)c3ccccc32)cn1 [Example 515, 5-chloro-2-(difluoromethyl)-N-((1r,4r)-4-((3-(6-((2,2-difluoropropyl)amino)pyridin-3-yl)-2-oxo-2,3-dihydro-1H-benzo[d]imidazol-1-yl)methyl)cyclohexyl)nicotinamide] | < 300
Cc1ncc(Cl)cc1C(=O)N[C@H]1CC[C@H](Cn2c(=O)n(-c3cccc(-c4ncco4)c3)c3ccccc32)CC1 [Example 516, 5-chloro-2-methyl-N-((1r,4r)-4-((3-(3-(oxazol-2-yl)phenyl)-2-oxo-2,3-dihydro-1H-benzo [d]imidazol-1-yl)methyl)cyclo-hexyl)nicotinamide] | < 300
Cc1ncc(Cl)cc1C(=O)N[C@H]1CC[C@H](Cn2c(=O)n(-c3cccc(-c4cncn4C)c3)c3ccccc32)CC1 [Example 517, 5-chloro-2-methyl-N-((1r,4r)-4-((3-(3-(1-methyl-1H-imidazol-5-yl)phenyl)-2-oxo-2,3-dihydro-1H-benzo[d]imidazol-1-yl)methyl)cyclohexyl)nicotinamide] | < 300
Cc1ncc(Cl)cc1C(=O)N[C@H]1CC[C@H](Cn2c(=O)n(-c3ccc(-c4nccs4)cc3)c3ccccc32)CC1 [Example 518, 5-chloro-2-methyl-N-((1r,4r)-4-((2-oxo-3-(4-(thiazol-2-yl)phenyl)-2,3-dihydro-1H-benzo [d]imidazol-1-yl)methyl)cyclo-hexyl)nicotinamide] | < 300
Cc1ncc(Cl)cc1C(=O)N[C@H]1CC[C@H](Cn2c(=O)n(-c3ccnc(N4CCOCC4)c3)c3ccccc32)CC1 [Example 519, 5-chloro-2-methyl-N-((1r,4r)-4-((3-(2-morpholinopyridin-4-yl)-2-oxo-2,3-dihydro-1H-benzo[d]imidazol-1-yl)methyl)cyclohexyl)nicotinamide] | < 300
Cc1ncc(Cl)cc1C(=O)N[C@H]1CC[C@H](Cn2c(=O)n(-c3cccc(-n4ccnc4)n3)c3ccccc32)CC1 [Example 520, N-((1r,4r)-4-((3-(6-(1H-imidazol-1-yl)pyridin-2-yl)-2-oxo-2,3-dihydro-1H-benzo[d]imidazol-1-yl)methyl)cyclo-hexyl)-5-chloro-2-methyl-nicotinamide] | < 300
Cc1ncc(Cl)cc1C(=O)N[C@H]1CC[C@H](Cn2c(=O)n(-c3ccnc(-c4cnco4)c3)c3ccccc32)CC1 [Example 521, 5-chloro-2-methyl-N-((1r,4r)-4-((3-(2-(oxazol-5-yl)pyridin-4-yl)-2-oxo-2,3-dihydro-1H-benzo[d]imidazol-1-yl)methyl)cyclohexyl)nicotinamide] | < 300
CNc1ncc(-n2c(=O)n(C[C@H]3CC[C@H](NC(=O)c4cc(Cl)cnc4C)CC3)c3ccccc32)cc1Cl [Example 522, 5-chloro-N-((1r,4r)-4-((3-(5-chloro-6-(methylamino)pyridin-3-yl)-2-oxo-2,3-dihydro-1H-benzo[d]imidazol-1-yl)methyl)cyclohexyl)-2-methyl-nicotinamide] | < 300
O=C(N[C@H]1CC[C@H](Cn2c(=O)n(-c3ccc(N4CCNC4=O)nc3)c3ccccc32)CC1)c1cc(Cl)cnc1C(F)F [Example 523, 5-chloro-2-(difluoromethyl)-N-((1r,4r)-4-((2-oxo-3-(6-(2-oxoimidazolidin-1-yl)pyridin-3-yl)-2,3-dihydro-1H-benzo[d]imidazol-1-yl)methyl)cyclohexyl)nicotinamide] | < 300
CN1CCN(c2ccc(-n3c(=O)n(C[C@H]4CC[C@H](NC(=O)c5cc(Cl)cnc5C(F)F)CC4)c4ccccc43)cn2)C1=O [Example 524, 5-chloro-2-(difluoromethyl)-N-((1r,4r)-4-((3-(6-(3-methyl-2-oxoimidazolidin-1-yl)pyridin-3-yl)-2-oxo-2,3-dihydro-1H-benzo[d]imidazol-1-yl)methyl)cyclohexyl) nicotinamide] | < 300
CNC(=O)c1ccc(-n2c(=O)n(C[C@H]3CC[C@H](NC(=O)c4cc(Cl)cnc4C(F)F)CC3)c3cccc(C)c32)cn1 [Example 527, 5-(3-(((1r,4r)-4-(5-chloro-2-(difluoromethyl)nicotinamido)cyclohexyl)methyl)-7-methyl-2-oxo-2,3-dihydro-1H-benzo [d]imidazol-1-yl)-N-methylpicolinamide] | < 300
CNC(=O)c1ccc(-n2c(=O)n(C[C@H]3CC[C@H](NC(=O)c4cc(Cl)cnc4C(F)F)CC3)c3cc(OC)ccc32)cn1 [Example 528, 5-(3-(((1r,4r)-4-(5-chloro-2-(difluoromethyl)nicotinamido)cyclohexyl)methyl)-5-methoxy-2-oxo-2,3-dihydro-1H-benzo [d]imidazol-1-yl)-N-methylpicolinamide] | < 300
CNC(=O)c1ccc(-n2c(=O)n(C[C@H]3CC[C@H](NC(=O)c4cc(Cl)cnc4C(F)F)CC3)c3cc(C)ccc32)cn1 [Example 529, 5-(3-(((1r,4r)-4-(5-chloro-2-(difluoromethyl)nicotinamido)cyclohexyl)methyl)-5-methyl-2-oxo-2,3-dihydro-1H-benzo [d]imidazol-1-yl)-N-methylpicolinamide] | < 300
CNC(=O)c1ccc(-n2c(=O)n(C[C@H]3CC[C@H](NC(=O)c4cc(Cl)cnc4C(F)F)CC3)c3cc(F)ccc32)cn1 [Example 530, 5-(3-(((1r,4r)-4-(5-chloro-2-(difluoromethyl)nicotinamido)cyclohexyl)methyl)-5-fluoro-2-oxo-2,3-dihydro-1H-benzo [d]imidazol-1-yl)-N-methylpicolinamide] | < 300
CNC(=O)c1ccc(-n2c(=O)n(C[C@H]3CC[C@H](NC(=O)c4cc(Cl)ccc4OC(F)(F)F)CC3)c3ccccc32)cn1 [Example 531, 5-(3-(((1r,4r)-4-(5-chloro-2-(trifluoromethoxy)benzamido)cyclohexyl)methyl)-2-oxo-2,3-dihydro-1H-benzo[d]imidazol-1-yl)-N-methyl-picolinamide] | < 300
CNC(=O)c1ccc(-n2c(=O)n(C[C@H]3CC[C@H](NC(=O)c4cc(C(F)(F)F)ccc4C)CC3)c3ccccc32)cn1 [Example 532, N-methyl-5-(3-(((1r,4r)-4-(2-methyl-5-(trifluoromethyl)benzamido)cyclohexyl)methyl)-2-oxo-2,3-dihydro-1H-benzo[d]imidazol-1-yl) picolinamide] | < 300
CNC(=O)c1ccc(-n2c(=O)n(C[C@H]3CC[C@H](NC(=O)c4cc(Cl)ccc4OC(F)F)CC3)c3ccccc32)cn1 [Example 533, 5-(3-(((1r,4r)-4-(5-chloro-2-(difluoromethoxy)benzamido)cyclohexyl)methyl)-2-oxo-2,3-dihydro-1H-benzo[d]imidazol-1-yl)-N-methylpicolinamide] | < 300
CNC(=O)c1ccc(-n2c(=O)n(C[C@H]3CC[C@H](NC(=O)c4cc(Cl)cnc4N)CC3)c3ccccc32)cn1 [Example 534, 5-(3-(((1r,4r)-4-(2-amino-5-chloronicotinamido)cyclo-hexyl)methyl)-2-oxo-2,3-dihydro-1H-benzo[d]imidazol-1-yl)-N-methylpicolinamide] | < 300
Cc1ncc(Cl)cc1C(=O)N[C@H]1CC[C@H](Cn2c(=O)n(-c3cccc(-n4ccnn4)c3)c3ccccc32)CC1 [Example 537, N-((1r,4r)-4-((3-(3-(1H-1,2,3-triazol-1-yl)phenyl)-2-oxo-2,3-dihydro-1H-benzo[d]imidazol-1-yl)methyl)cyclohexyl)-5-chloro-2-methylnicotinamide] | < 300
